Results published in PubChem BioAssay AID328 (DTP/NCI, 2004).
Several values for one entry are separate records, joined by “and”; a condition that tells them apart may be missing. Identical values can stand only once. Inconclusive results and toxic doses are left out.

System: BDF1 mice, P388 leukemia ip, median survival T/C
Test: NCI In Vivo Anticancer Drug Screen. Data for tumor model P388 Leukemia (intraperitoneal) in B6D2F1 (BDF1) mice
Conditions: endpoint: median survival time, higher = longer survival
Outline: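 Antitumour effect was judged in vivo: survival in drug-treated mice, normalised to that of vehicle-dosed controls, gives the reported T/C.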

[1] = dose: 25.0 mg/kg/injection, schedule: Q01DX009 (ip), vehicle: Klucel (hydroxypropylcellulose) (HPC)

SMILES: C/C(=C\c1ccccc1)[N+](=O)[O-]
- T/C (dose: 4.0 mg/kg/injection, schedule: Q01DX009 (ip), vehicle: Klucel (hydroxypropylcellulose) (HPC)): 101 % of control
- T/C (dose: 6.2 mg/kg/injection, schedule: Q01DX009 (ip), vehicle: saline): 90 % of control
- T/C (dose: 6.25 mg/kg/injection, schedule: Q01DX009 (ip), vehicle: saline): 100 % of control
- T/C (dose: 8.0 mg/kg/injection, schedule: Q01DX009 (ip), vehicle: Klucel (hydroxypropylcellulose) (HPC)): 108 % of control
- T/C (dose: 12.5 mg/kg/injection, schedule: Q01DX009 (ip), vehicle: saline): 90 % of control and 105 % of control
- T/C [1]: 100 % of control
- T/C (dose: 25.0 mg/kg/injection, schedule: Q01DX009 (ip), vehicle: saline): 90 % of control and 108 % of control and 119 % of control
- T/C (dose: 25.0 mg/kg/injection, schedule: Q04DX003 (ip), vehicle: Klucel (hydroxypropylcellulose) (HPC)): 113 % of control
- T/C (dose: 30.0 mg/kg/injection, schedule: Q01DX009 (ip), vehicle: Klucel (hydroxypropylcellulose) (HPC)): 118 % of control
- T/C (dose: 44.0 mg/kg/injection, schedule: Q01DX009 (ip), vehicle: Klucel (hydroxypropylcellulose) (HPC)): 109 % of control
- T/C (dose: 50.0 mg/kg/injection, schedule: Q01DX009 (ip), vehicle: Klucel (hydroxypropylcellulose) (HPC)): 87 % of control
- T/C (dose: 50.0 mg/kg/injection, schedule: Q01DX009 (ip), vehicle: saline): 115 % of control and 123 % of control
- T/C (dose: 50.0 mg/kg/injection, schedule: Q04DX003 (ip), vehicle: Klucel (hydroxypropylcellulose) (HPC)): 113 % of control
- T/C (dose: 50.0 mg/kg/injection, schedule: Q04DX003 (ip), vehicle: saline): 100 % of control
- T/C (dose: 67.0 mg/kg/injection, schedule: Q01DX009 (ip), vehicle: Klucel (hydroxypropylcellulose) (HPC)): 95 % of control
- T/C (dose: 100.0 mg/kg/injection, schedule: Q04DX003 (ip), vehicle: saline): 109 % of control
- T/C (dose: 200.0 mg/kg/injection, schedule: Q04DX003 (ip), vehicle: saline): 100 % of control
- T/C (dose: 400.0 mg/kg/injection, schedule: Q04DX003 (ip), vehicle: saline): 109 % of control

SMILES: C=C/C=C\N(CC)CC
- T/C (dose: 0.78 mg/kg/injection, schedule: Q01DX009 (ip), vehicle: water): 110 % of control
- T/C (dose: 1.56 mg/kg/injection, schedule: Q01DX009 (ip), vehicle: water): 109 % of control and 112 % of control
- T/C (dose: 3.12 mg/kg/injection, schedule: Q01DX009 (ip), vehicle: water): 107 % of control and 121 % of control
- T/C (dose: 6.25 mg/kg/injection, schedule: Q01DX009 (ip), vehicle: water): 89 % of control and 100 % of control and 102 % of control
- T/C (dose: 12.5 mg/kg/injection, schedule: Q01DX009 (ip), vehicle: water): 102 % of control and 123 % of control
- T/C (dose: 25.0 mg/kg/injection, schedule: Q01DX009 (ip), vehicle: water): 89 % of control and 116 % of control and 118 % of control

SMILES: N=C(N)SC1c2cc(Cl)ccc2-c2c(Cl)cc(Cl)cc21 (centres undefined)
- T/C (dose: 3.1 mg/kg/injection, schedule: Q01DX010 (ip), vehicle: carboxymethylcellulose (CMC)): 100 % of control
- T/C (dose: 6.2 mg/kg/injection, schedule: Q01DX010 (ip), vehicle: carboxymethylcellulose (CMC)): 110 % of control
- T/C (dose: 12.5 mg/kg/injection, schedule: Q01DX009 (ip), vehicle: Klucel (hydroxypropylcellulose) (HPC)): 100 % of control
- T/C (dose: 12.5 mg/kg/injection, schedule: Q01DX010 (ip), vehicle: carboxymethylcellulose (CMC)): 110 % of control
- T/C [1]: 120 % of control
- T/C (dose: 100.0 mg/kg/injection, schedule: Q01DX010 (ip), vehicle: carboxymethylcellulose (CMC)): 150 % of control

SMILES: N#C/C(=C\c1ccncc1)c1ccccc1
- T/C (dose: 12.5 mg/kg/injection, schedule: Q01DX009 (ip), vehicle: saline with Tween-80): 92 % of control
- T/C (dose: 50.0 mg/kg/injection, schedule: Q01DX009 (ip), vehicle: saline with Tween-80): 98 % of control
- T/C (dose: 100.0 mg/kg/injection, schedule: Q01DX009 (ip), vehicle: saline with Tween-80): 112 % of control
- T/C (dose: 200.0 mg/kg/injection, schedule: Q01DX009 (ip), vehicle: saline with Tween-80): 98 % of control

SMILES: Cc1sc2c(c1-c1ccccc1)C(=O)CCCN2
- T/C (dose: 25.0 mg/kg/injection, schedule: Q01DX005 (ip), vehicle: saline with Tween-80): 108 % of control
- T/C (dose: 50.0 mg/kg/injection, schedule: Q01DX005 (ip), vehicle: saline with Tween-80): 101 % of control
- T/C (dose: 50.0 mg/kg/injection, schedule: Q04DX003 (ip), vehicle: saline with Tween-80): 107 % of control
- T/C (dose: 100.0 mg/kg/injection, schedule: Q01DX005 (ip), vehicle: saline with Tween-80): 118 % of control
- T/C (dose: 100.0 mg/kg/injection, schedule: Q04DX003 (ip), vehicle: saline with Tween-80): 107 % of control
- T/C (dose: 200.0 mg/kg/injection, schedule: Q01DX005 (ip), vehicle: saline with Tween-80): 118 % of control
- T/C (dose: 200.0 mg/kg/injection, schedule: Q04DX003 (ip), vehicle: saline with Tween-80): 105 % of control
- T/C (dose: 400.0 mg/kg/injection, schedule: Q04DX003 (ip), vehicle: saline with Tween-80): 105 % of control

SMILES: OC1c2ccccc2-c2ccccc2C1O (centres undefined)
- T/C (dose: 200.0 mg/kg/injection, schedule: Q04DX002 (ip), vehicle: saline with Tween-80): 153 % of control
- T/C (dose: 400.0 mg/kg/injection, schedule: Q04DX002 (ip), vehicle: saline with Tween-80): 155 % of control
